Reference: patent publication US20060189699A1, “Antimicrobial trinervitane derivatives” (Commonwealth Scientific and Industrial Researh Org, priority 2003, published 2006)
Entries after “also recorded” stand apart in the source; their conditions may differ. Where two headings read alike, the source gives them in different places.

How the values were obtained:
[1] = test system: Bacillus subtilis (ATCC Strain 6633); assay: modified agar bioassay for weak antimicrobial activity (clear zone); format: cell-based; conditions: for level of antimicrobial activity relative to trinervitadienes previously isolated from N. triodiae: screening assays, qualitative, potency not determined quantitatively
Description: Extracts of the worker and soldier castes of the nasute termite species Nasutitermes exitiosus (Hill) (Isoptera:Termitidae) were screened against Bacillus subtilis (ATCC Strain 6633) at a concentration of 4.0 mg/ml in a bioassay. […] The only difference between the assay used in the current work and that described previously (WO 01/90035) is that in the current case the density of bacterial cells in the Luria-Bertani agar medium was ten times lower than that described in the earlier specification.
Twelve mL of a 70% methanol extract of N. exitiosus soldiers (containing 86 mg of solute) was fractionated by reverse-phase HPLC using a semi-preparative column at a flow rate of 4 ml/min and a gradient from water containing 0.05% (v/v) trifluroacetic acid to 100% acetonitrile over 20 minutes and then 100% acetonitrile for a further 15 minutes. The UV absorbance of the eluant was monitored at 230 nm. Fractions were collected over 35 minutes. Corresponding fractions were pooled across replicate separation runs and the pooled fractions were evaporated to dryness under nitrogen. Residues of the fractions were redissolved in HPLC grade water (fractions from 1-8 minutes), 70% aqueous methanol (9-15 minutes), or methanol (16-35 minutes).

Bacillus subtilis = conditions: WO 01/90035, as compound 9; cited from earlier work
[2] = isolated HPLC sub-fractions / purified compounds
[3] = purified components of fraction F2, modified antimicrobial assay

C=C1/C2=C\C[C@@H](C)C/C=C/C(=C)[C@@H]3CC[C@@](C)([C@H]13)[C@@H](O)[C@@H]2O [P, 9E-1(14),8(19),9(10),15(17)-trinervitatetraene-2β,3α-diol]
clear zone diameter ([1]; pooled reverse-phase HPLC fractions of soldier extract, quantity corresponding to 20 μL of crude extract): 4 mm
level of antimicrobial activity relative to trinervitadienes previously isolated from N. triodiae [1]: qualitatively similar levels of antimicrobial activity

C/C1=C/CC[C@H](C)CCC2C(C)[C@@H]3C1CC[C@]3(C)[C@@H](O)[C@@H]2O (stereo partly drawn) [S, 1(15),8(9)-trinervitadiene-2β,3α-diol]
antimicrobial / biological activity [1, 2]: biologically active; also recorded: confirmed
antimicrobial activity shown in the earlier patent specification (Bacillus subtilis): antimicrobial activity

C=C1/C2=C\C[C@@H](C)CCCC(=C)[C@@H]3CC[C@@](C)([C@H]13)[C@@H](O)[C@@H]2O [Q, 1(14),8(19),15(17)-trinervitatriene-2β,3α-diol]
antimicrobial / biological activity [1, 2]: biologically active
clear zone diameter [1, 3]: 4 mm
level of antimicrobial activity relative to trinervitadienes previously isolated from N. triodiae [1]: qualitatively similar levels of antimicrobial activity

1(15),8(9)-trinervitadiene-3α-ol-2-one
antimicrobial / biological activity [1, 2]: biologically active; also recorded: antimicrobial compound; also recorded: confirmed
level of antimicrobial activity relative to trinervitadienes previously isolated from N. triodiae [1]: qualitatively similar levels of antimicrobial activity

1(15),8(19)-trinervitadiene-2β,3α,9α-triol 2,3,9-triacetate [U]
antimicrobial / biological activity [1]: biologically active; also recorded: antimicrobial activity; also recorded: confirmed
level of antimicrobial activity relative to trinervitadienes previously isolated from N. triodiae [1]: qualitatively similar levels of antimicrobial activity

C=C1/C2=C\C[C@@H](C)CCC/C(C)=C3/CC[C@@](C)([C@H]13)[C@@H](O)[C@@H]2O [R, 1(14),7(8),15(17)-trinervitatriene-2β,3α-diol]
antimicrobial / biological activity [1, 2]: biologically active
clear zone diameter [1, 3]: 5 mm
level of antimicrobial activity relative to trinervitadienes previously isolated from N. triodiae [1]: qualitatively similar levels of antimicrobial activity
